The values below come from article PMC13366236 (Acta Pharmaceutica Sinica. B, 2025).

SMILES strings stand for the structures. Where only a bound is given, the exact number is not on record here.

The first test concerns MDA-MB-231 cells. In words: Cell viability CCK-8 assay. In kind it is cell-based, human. To be noted: Homo sapiens, MDA-MB-231, 48 h, read-out: Antiproliferative IC50 ± SD. A general note: Formazan colour is commonly taken as a measure of viable cells.
For orientation: IC50 means the concentration at which inhibition is half-maximal. As for `CO[C@H]1C[C@@H]2CC[C@@H](C)[C@@](O)(O2)C(=O)C(=O)N2CCCC[C@H]2C(=O)O[C@H]([C@H](C)C[C@@H]2CC[C@@H](OCCO)[C@H](OC)C2)CC(=O)[C@H](C)/C=C(\C)[C@@H](O)[C@@H](OC)C(=O)[C@H](C)C[C@H](C)/C=C/C=C/C=C/1C` [Everolimus, reference compound], the IC50 came out at 2.29 ± 0.0763 µM. For `CC(C)n1nc(-c2ccc3oc(N)nc3c2)c2c(N)ncnc21` [MLN-0128, reference compound], the IC50 was found to be 0.179 ± 0.238 µM.

The next test deals with mTOR (Homo sapiens, UniProt P42345). In words: mTOR kinase inhibition, Lance Ultra assay. In kind it is biochemical. The settings on record: mTOR IC50, text and Fig. 3A.
Compound `Nc1ccccc1/N=c1\cc(-c2ccc3c(c2)OCO3)oc2ccccc12` [Compound 4a] returned an IC50 of 1.5 µM.

Staying with this test, now noted: mTOR, IC50, mean ± SD of triplicate measurements.
On to `Nc1ccccc1/N=c1\cc(-c2ccc3c(c2)OCO3)oc2ccccc12` [Compound 4a], for which the IC50 amounted to 1.54 ± 0.0211 µM.

For the compound `NCC(=O)Nc1ccccc1/N=c1\cc(-c2ccc3c(c2)OCO3)oc2ccccc12` [Compound 5a, (E)-2-amino-N-(2-((2-(benzo[d][1,3]dioxol-5-yl)-4H-chromen-4-ylidene)amino)phenyl)acetamide], the midpoint of inhibition, the IC50, lay at 0.719 ± 0.0074 µM.

`NCCC(=O)Nc1cccc(/N=c2\cc(-c3ccc4c(c3)OCO4)oc3ccccc23)c1` [Compound 5ab, (E)-3-amino-N-(3-((2-(benzo[d][1,3]dioxol-5-yl)-4H-chromen-4-ylidene)amino)phenyl)propanamide] yielded an IC50 of more than 10 µM. `NCCC(=O)Nc1ccc(/N=c2\cc(-c3ccc4c(c3)OCO4)oc3ccccc23)cc1` [Compound 5ac, (E)-3-amino-N-(4-((2-(benzo[d][1,3]dioxol-5-yl)-4H-chromen-4-ylidene)amino)phenyl)propanamide] yielded an IC50 of more than 10 µM. On the same count and under the same terms, under `C[C@H](N)C(=O)Nc1ccccc1/N=c1\cc(-c2ccc3c(c2)OCO3)oc2ccccc12` [Compound 5b, (S,E)-2-amino-N-(2-((2-(benzo[d][1,3]dioxol-5-yl)-4H-chromen-4-ylidene)amino)phenyl)propanamide] stands 3.19 ± 0.194 µM; under `N[C@@H](CO)C(=O)Nc1ccccc1/N=c1\cc(-c2ccc3c(c2)OCO3)oc2ccccc12` [Compound 5c, (S,E)-2-amino-N-(2-((2-(benzo[d][1,3]dioxol-5-yl)-4H-chromen-4-ylidene)amino)phenyl)-3-hydroxypropanamide], more than 10 µM. The same measure, in the same setting: under `COCCC(=O)Nc1ccccc1/N=c1\cc(-c2ccc3c(c2)OCO3)oc2ccccc12` [Compound 5d, (E)-N-(2-((2-(benzo[d][1,3]dioxol-5-yl)-4H-chromen-4-ylidene)amino)phenyl)-3-methoxypropanamide] stands more than 10 µM; under `NCCC(=O)Nc1ccccc1/N=c1\cc(-c2ccc3c(c2)OCO3)oc2ccccc12` [Compound 5e, (E)-3-amino-N-(2-((2-(benzo[d][1,3]dioxol-5-yl)-4H-chromen-4-ylidene)amino)phenyl)propanamide], 0.317 ± 0.0191 µM. As for `NCCCC(=O)Nc1ccccc1/N=c1\cc(-c2ccc3c(c2)OCO3)oc2ccccc12` [Compound 5f, (E)-4-amino-N-(2-((2-(benzo[d][1,3]dioxol-5-yl)-4H-chromen-4-ylidene)amino)phenyl)butanamide], the IC50 came to 8.19 ± 1.85 µM. For the compound `NCCCCC(=O)Nc1ccccc1/N=c1\cc(-c2ccc3c(c2)OCO3)oc2ccccc12` [Compound 5g, (E)-5-amino-N-(2-((2-(benzo[d][1,3]dioxol-5-yl)-4H-chromen-4-ylidene)amino)phenyl)pentanamide], the IC50 was more than 10 µM.

For the compound `O=C(Nc1ccccc1/N=c1\cc(-c2ccc3c(c2)OCO3)oc2ccccc12)N1CCOCC1` [Compound 5h, (E)-N-(2-((2-(benzo[d][1,3]dioxol-5-yl)-4H-chromen-4-ylidene)amino)phenyl)morpholine-4-carboxamide], the IC50 was more than 10 µM. On the same count and under the same terms, in the case of `O=C(Nc1ccccc1/N=c1\cc(-c2ccc3c(c2)OCO3)oc2ccccc12)N1CCNCC1` [Compound 5i, (E)-N-(2-((2-(benzo[d][1,3]dioxol-5-yl)-4H-chromen-4-ylidene)amino)phenyl)piperazine-1-carboxamide] it was 7.47 ± 0.139 µM; in that of `CC(C)(C)[C@H](N)C(=O)Nc1ccccc1/N=c1\cc(-c2ccc3c(c2)OCO3)oc2ccccc12` [Compound 5j, (S,E)-2-amino-N-(2-((2-(benzo[d][1,3]dioxol-5-yl)-4H-chromen-4-ylidene)amino)phenyl)-3,3-dimethylbutanamide], more than 10 µM; in that of `NCC(=O)Nc1ccccc1/N=c1\cc(-c2ccc3c(c2)OCO3)oc2c(N)cccc12` [Compound 5m, (E)-2-amino-N-(2-((2-(benzo[d][1,3]dioxol-5-yl)-8-amino-4H-chromen-4-ylidene)amino)phenyl)acetamide], 6.16 ± 1.11 µM. The compound `NCC(=O)Nc1ccccc1/N=c1\cc(-c2ccc3c(c2)OCCO3)oc2ccccc12` [Compound 5p, (E)-2-amino-N-(2-((2-(2,3-dihydrobenzo[b][1,4]dioxin-6-yl)-4H-chromen-4-ylidene)amino)phenyl)acetamide] came in with an IC50 of 1.52 ± 0.121 µM. The same measure, in the same setting: in the case of `C[C@H](N)C(=O)Nc1ccccc1/N=c1\cc(-c2ccc3c(c2)OCCO3)oc2c([N+](=O)[O-])cccc12` [Compound 5q, (S,E)-2-amino-N-(2-((2-(2,3-dihydrobenzo[b][1,4]dioxin-6-yl)-8-nitro-4H-chromen-4-ylidene)amino)phenyl)propanamide] it was more than 10 µM; in that of `C[C@H](N)C(=O)Nc1ccccc1/N=c1\cc(-c2ccc3c(c2)OCCO3)oc2c(N)cccc12` [Compound 5r, (S,E)-2-amino-N-(2-((8-amino-2-(2,3-dihydrobenzo[b][1,4]dioxin-6-yl)-4H-chromen-4-ylidene)amino)phenyl)propanamide], more than 10 µM; in that of `COc1ccc2/c(=N/c3ccccc3NC(=O)[C@H](C)N)cc(-c3ccc4c(c3)OCCO4)oc2c1` [Compound 5s, (S,E)-2-amino-N-(2-((2-(2,3-dihydrobenzo[b][1,4]dioxin-6-yl)-7-methoxy-4H-chromen-4-ylidene)amino)phenyl)propanamide], more than 10 µM. In the case of `COc1ccc2/c(=N/c3ccccc3NC(=O)CN)cc(-c3ccc4c(c3)OCCO4)oc2c1` [Compound 5t, (E)-2-amino-N-(2-((2-(2,3-dihydrobenzo[b][1,4]dioxin-6-yl)-7-methoxy-4H-chromen-4-ylidene)amino)phenyl)acetamide], the half-inhibitory concentration (IC50) is more than 10 µM. `C[C@H](N)C(=O)Nc1ccccc1/N=c1\cc(-c2ccc3c(c2)OCCO3)oc2cc(F)ccc12` [Compound 5x, (S,E)-2-amino-N-(2-((2-(2,3-dihydrobenzo[b][1,4]dioxin-6-yl)-7-fluoro-4H-chromen-4-ylidene)amino)phenyl)propanamide] gave an IC50 of more than 10 µM. `NCC(=O)Nc1ccccc1/N=c1\cc(-c2ccc3c(c2)OCCO3)oc2cc(F)ccc12` [Compound 5y, (E)-2-amino-N-(2-((2-(2,3-dihydrobenzo[b][1,4]dioxin-6-yl)-7-fluoro-4H-chromen-4-ylidene)amino)phenyl)acetamide] displayed an IC50 of more than 10 µM. Take `COCCC(=O)Nc1ccccc1/N=c1\cc(-c2ccc3nc(N)oc3c2)oc2ccccc12` [Compound 12b, (E)-N-(2-((2-(2-aminobenzo[d]oxazol-6-yl)-4H-chromen-4-ylidene)amino)phenyl)-3-methoxypropanamide]: the IC50 stood at 3.37 ± 0.334 µM. The compound `CS(=O)(=O)NCCC(=O)Nc1ccccc1/N=c1\cc(-c2ccc3nc(N)oc3c2)oc2ccccc12` [Compound 12d, (E)-N-(2-((2-(2-aminobenzo[d]oxazol-6-yl)-4H-chromen-4-ylidene)amino)phenyl)-3-(methylsulfonamido)propanamide] came in with an IC50 of 3.39 ± 0.164 µM. Turning to `CN(C)CCC(=O)Nc1ccccc1/N=c1\cc(-c2ccc3nc(N)oc3c2)oc2ccccc12` [Compound 12e, (E)-N-(2-((2-(2-aminobenzo[d]oxazol-6-yl)-4H-chromen-4-ylidene)amino)phenyl)-3-(dimethylamino)propanamide], the IC50 came to 2.61 ± 0.201 µM.

`CCN(CC)CCC(=O)Nc1ccccc1/N=c1\cc(-c2ccc3nc(N)oc3c2)oc2ccccc12` [Compound 12f, (E)-N-(2-((2-(2-aminobenzo[d]oxazol-6-yl)-4H-chromen-4-ylidene)amino)phenyl)-3-(diethylamino)propanamide]: the IC50 was more than 10 µM. On the same count and under the same terms, in the case of `Nc1nc2ccc(-c3c/c(=N\c4ccccc4NC(=O)CCN4CCCC4)c4ccccc4o3)cc2o1` [Compound 12g, (E)-N-(2-((2-(2-aminobenzo[d]oxazol-6-yl)-4H-chromen-4-ylidene)amino)phenyl)-3-(pyrrolidin-1-yl)propanamide] it was more than 10 µM; in that of `Nc1nc2ccc(-c3c/c(=N\c4ccccc4NC(=O)CCN4CCOCC4)c4ccccc4o3)cc2o1` [Compound 12h, (E)-N-(2-((2-(2-aminobenzo[d]oxazol-6-yl)-4H-chromen-4-ylidene)amino)phenyl)-3-morpholinopropanamide], more than 10 µM; in that of `N#Cc1ccc2oc(-c3ccc4nc(N)oc4c3)c/c(=N\c3ccccc3NC(=O)CCN)c2c1` [Compound 12l, (E)-3-amino-N-(2-((2-(2-aminobenzo[d]oxazol-6-yl)-6-cyano-4H-chromen-4-ylidene)amino)phenyl)propanamide], 1.24 ± 0.0861 µM. On the same count and under the same terms, under `NCCC(=O)Nc1ccccc1/N=c1\cc(-c2ccc3nc(N)oc3c2)oc2cc(Br)ccc12` [Compound 12o, (E)-3-amino-N-(2-((2-(2-aminobenzo[d]oxazol-6-yl)-7-bromo-4H-chromen-4-ylidene)amino)phenyl)propanamide] stands 9.34 ± 0.748 µM; under `CCNc1nc2ccc(-c3c/c(=N\c4ccccc4NC(=O)CCN)c4ccccc4o3)cc2o1` [Compound 15, (E)-3-amino-N-(2-((2-(2-(ethylamino)benzo[d]oxazol-6-yl)-4H-chromen-4-ylidene)amino)phenyl)propanamide], 2.66 ± 0.38 µM; under `NCCC(=O)Nc1ccccc1/N=c1\cc(-c2ccc3oc(N)nc3c2)oc2ccccc12` [Compound 21, (E)-3-amino-N-(2-((2-(2-aminobenzo[d]oxazol-5-yl)-4H-chromen-4-ylidene)amino)phenyl)propanamide], 0.696 ± 0.0582 µM.

The same test, now with this note: vs 12a.
Turning to `NCCC(=O)Nc1ccccc1/N=c1\cc(-c2ccc3oc(N)nc3c2)oc2ccccc12` [Compound 21, (E)-3-amino-N-(2-((2-(2-aminobenzo[d]oxazol-5-yl)-4H-chromen-4-ylidene)amino)phenyl)propanamide], the “fold decrease in kinase inhibitory activity (mTOR)” value is listed as 15.4 fold.
